Patent US20170226507A1, “COORDINATE CONTROL OF PATHOGENIC SIGNALING BY THE MIR-130/301 FAMILY IN PULMONARY HYPERTENSION AND FIBROPROLIFERATIVE DISEASES” (The Brigham and Women's Hospital, Inc., priority 2014, published 2017)

How the values were obtained:
Format in all cases: cell-based, human
PAECs [1] = assay: Caspase 3/7 assay, PAECs
Method: Caspase 3,7 activity was quantified using the Caspase-Glo 3/7 Assay (Promega), according to manufacturer's instructions. Briefly, cells were plated in triplicate in 96-well plates and transfected with the appropriate oligonucleotide. Forty-eight hours after transfection, cells were cultured in the presence or absence of serum for twenty-four hours. Cells were then incubated for 1 h with the caspase substrates, and luminescence was quantified.

PAAFs = assay: ECM remodeling experiment (naïve PAAFs plated on remodeled ECM)
Method: After the different treatment cells were fixed with PBS/PFA 4% for 10 min and permeabilized with PBS/Triton 100×0.1% for 10 min. Then cells were incubated with anti-YAP1 (#4912; 1/100; Cell signaling) at 4° C. overnight. Secondary antibodies coupled with Alexa-594 (Life Technologies) were used at 1:500. Nuclei were counterstained with DAPI (Sigma).
Following treatment, PAAFs were plated atop soft matrices (see below) in normal growth medium supplemented with 0.5% FBS. After three days, 10 ug/mL of puromycin was added to the growth medium for 48 hours to detach the cells from the matrix. Matrices were washed 3 times (PBS). Naïve PAAFs were then plated on top of these matrices supplemented with normal growth medium 0.5% FBS or harvested for assessment of collagen crosslinking (Picrosirius Red stain). Sixteen hours later, cells were harvested for immunofluorescence experiments or RNA extraction.
Picrosirius Red stain was achieved through the use of 5 μm paraffin sections stained with 0.1% Picrosirius Red (Direct Red80, Sigma-Aldrich) and counterstained with Weigert's hematoxylin to reveal fibrillar collagen. The sections were then serially imaged using with an analyzer and polarizer oriented parallel and orthogonal to each other. Microscope conditions (lamp brightness, condenser opening, objective, zoom, exposure time, and gain parameters) were constant throughout the imaging of all samples. A minimal threshold was set on appropriate control sections for each experiment in which only the light passing through the orthogonally-oriented polarizers representing fibrous structures (i.e., excluding residual light from the black background) was included. The threshold was maintained for all images across all conditions within each experiment. The area of the transferred regions that was covered by the thresholded light was calculated and at least 10 sections/vessel per condition were averaged together (Image J software).

PAECs [2] = assay: Proliferation of PAECs (cell counting, BrdU incorporation, PCNA)
Source text: Pre-miRNA oligonucleotides (pre-miR-130a, pre-miR-204, pre-miR-424, and pre-miR-503 and negative control pre-miR-NC1 and premiR-NC2, Life Technologies), anti-miRNAs oligonucleotides (anti-miR-130a and anti-miR-NC, ThermoScientific), tiny LNA oligonucleotides (tiny-130: 5′-[…]-3′ (SEQ ID NO: 3), and tiny-NC 5′-[…]-3′ (SEQ ID NO: 51), Exiqon), siRNAs (PPARγ and scrambled control, Santa Cruz Biotechnology; HIF-1α, HIF-2α, and scrambled control, Life Technologies) were commercially purchased. PAECs and PASMCs were plated and transfected 24 h later at 70-80% confluence using pre-miRNA (5 nM), anti-miRNA (20 nM), tiny-LNA (20 nM) or siRNA (25 nM) with Lipofectamine 2000 reagent (Life Technologies), according to the manufacturers' instructions.
Exponentially growing cells were transfected, collected at the indicated times and counted.
Cells were lysed in RIPA buffer (Santa Cruz Biotechnology) and the protein concentration determined using a Bradford assay (Biorad). Protein lysate ([…]) were resolved by SDS-PAGE and transferred onto a PVDF membrane (Biorad). Membranes were blocked in 5% non-fat milk in TN buffer (50 mM Tris-HCl pH 7.4, 150 mM NaCl) and incubated in the presence of the primary and then secondary antibodies. After washing in TN buffer containing 0.1% Tween, immunoreactive bands were visualized with the ECL system (Amersham Biosciences). […] Primary antibodies for STAT3 (#9139) and P-STAT3 (Tyr-705; #9145) were purchased from Cell Signaling. Primary antibodies against actin (ab 3280), α-smooth-muscle-actin (ab 32575), CD31 (ab28364), and PCNA (ab 29) were obtained from Abcam. Appropriate secondary antibodies (anti-rabbit and anti-mouse) coupled to HRP were used (Santa Cruz Biotechnology).

tiny-LNA-130: fully LNA-modified tiny LNA oligonucleotide 5′-ATTGCACT-3′ (SEQ ID NO: 3) complementary to the seed region of the miR-130/301 family (all LNA, backbone and methylation of C not given here)
caspase 3/7 activity (PAECs [1]; 24 h serum deprivation): partially protected cells from caspase 3/7 induction | caspase 3/7 activity (PAECs [1]; serum-replete conditions): No significant modulation | collagen crosslinking of remodeled ECM (PAAFs; Picrosirius Red): reversed | collagen, LOX, CTGF, and POU5F1/OCT4 in naïve cells plated on remodeled ECM (PAAFs; RT-qPCR): down-regulated | miR-130/301 in naïve cells plated on remodeled ECM (PAAFs; RT-qPCR): down-regulated | number of cells (PAECs [2]; counted each day during 3 days): greater decrease in the number of cells compared with anti-miR-130a | BrdU incorporation (proliferation) (PAECs [2]; exponentially growing, BrdU pulse 1 h): greater decrease in proliferation compared with anti-miR-130a | PCNA expression (PAECs [2]; immunoblot 48 hours after transfection): more substantial decrease
